Reference: patent US7368578B2, “Five-membered heterocyclic compounds” (Takeda Pharmaceutical Company Limited, priority 2002, dated 2008)

Row | melting point [°C] | SMILES
1 | 149 to 150 | COc1cc(COc2nn(-c3ccccc3)cc2C=O)ccc1OCc1nc(N2CCOCC2)sc1C [Example 238, 3-({3-methoxy-4-[(5-methyl-2-morpholin-4-yl-1,3-thiazol-4-yl)methoxy]benzyl}oxy)-1-phenyl-1H-pyrazole-4-carbaldehyde]
2 | 154 to 155 | CCc1nc(/C=C/c2cn(-c3ccccc3)nc2OCc2ccc(OCc3nc(-c4ccc(C(=O)O)o4)oc3C)c(OC)c2)cs1 [Example 242, 5-[4-({4-[({4-[(E)-2-(2-ethyl-1,3-thiazol-4-yl)ethenyl]-1-phenyl-1H-pyrazol-3-yl}oxy)methyl]-2-methoxyphenoxy}methyl)-5-methyl-1,3-oxazol-2-yl]-2-furancarboxylic acid]
3 | 143 to 145 | CCOC(=O)c1ccc(-c2nc(COc3ccc(COc4nn(-c5ccccc5)cc4C=O)cc3OC)c(C)o2)o1 [Example 243, ethyl 5-{4-[(4-{[(4-formyl-1-phenyl-1H-pyrazol-3-yl)oxy]methyl}-2-methoxyphenoxy)methyl]-5-methyl-1,3-oxazol-2-yl}-2-furancarboxylate]
4 | 150 to 151 | CCOC(=O)c1ccc(-c2nc(COc3ccc(COc4nn(-c5ccccc5)cc4/C=C/c4csc(CC)n4)cc3OC)c(C)o2)o1 [Example 244 (E form), ethyl 5-[4-({4-[({4-[(E)-2-(2-ethyl-1,3-thiazol-4-yl)ethenyl]-1-phenyl-1H-pyrazol-3-yl}oxy)methyl]-2-methoxyphenoxy}methyl)-5-methyl-1,3-oxazol-2-yl]-2-furancarboxylate]
5 | 133 to 135 | CCOC(=O)c1ccc(-c2nc(COc3ccc(COc4nn(-c5ccccc5)cc4/C=C\c4csc(CC)n4)cc3OC)c(C)o2)o1 [Example 244 (Z form), ethyl 5-[4-({4-[({4-[(Z)-2-(2-ethyl-1,3-thiazol-4-yl)ethenyl]-1-phenyl-1H-pyrazol-3-yl}oxy)methyl]-2-methoxyphenoxy}methyl)-5-methyl-1,3-oxazol-2-yl]-2-furancarboxylate]
6 | 234 to 235 | COc1cc(C(=O)Nc2nn(-c3ccccc3)cc2C=O)ccc1OCc1nc(-c2ccccc2)oc1C [Example 245, N-(4-formyl-1-phenyl-1H-pyrazol-3-yl)-3-methoxy-4-[(5-methyl-2-phenyl-1,3-oxazol-4-yl)methoxy]benzamide]
7 | 157 to 158 | CCOC(=O)Cc1ccc(-c2nc(COc3ccc(COc4nn(-c5ccccc5)cc4C=O)cc3OC)c(C)o2)cc1 [Example 246, ethyl (4-{4-[(4-{[(4-formyl-1-phenyl-1H-pyrazol-3-yl)oxy]methyl}-2-methoxyphenoxy)methyl]-5-methyl-1,3-oxazol-2-yl}phenyl)acetate]
8 | 145 to 146 | CCOC(=O)Cc1cccc(-c2nc(COc3ccc(COc4nn(-c5ccccc5)cc4C=O)cc3OC)c(C)o2)c1 [Example 253, ethyl (3-{4-[(4-{[(4-formyl-1-phenyl-1H-pyrazol-3-yl)oxy]methyl}-2-methoxyphenoxy)methyl]-5-methyl-1,3-oxazol-2-yl}phenyl)acetate]
9 | 136 to 137 | COC(=O)c1cc(-c2nc(COc3ccc(COc4nn(-c5ccccc5)cc4C=O)cc3OC)c(C)o2)ccc1OS(C)(=O)=O [Example 255, methyl 5-{4-[(4-{[(4-formyl-1-phenyl-1H-pyrazol-3-yl)oxy]methyl}-2-methoxyphenoxy)methyl]-5-methyl-1,3-oxazol-2-yl}-2-(methanesulfonyloxy)benzoate]
10 | 165 to 166 | COC(=O)c1cc(-c2nc(COc3ccc(COc4nn(-c5ccccc5)cc4C=O)cc3OC)c(C)o2)ccc1OC [Example 256, methyl 5-{4-[(4-{[(4-formyl-1-phenyl-1H-pyrazol-3-yl)oxy]methyl}2-methoxyphenoxy)methyl]-5-methyl-1,3-oxazol-2-yl}-2-methoxybenzoate]
11 | 107 to 108 | CCOC(=O)/C=C/c1nc(-c2ccccc2)oc1COc1ccc(OCc2nc(-c3ccccc3)oc2C)cc1 [Example 258, ethyl (2E)-3-[5-({4-[(5-methyl-2-phenyl-1,3-oxazol-4-yl)methoxy]phenoxy}methyl)-2-phenyl-1,3-oxazol-4-yl]-2-propenoate]
12 | 147 to 148 | CCOC(=O)/C=C/c1cn(Cc2ccccc2)nc1OCc1ccc(OCc2nc(-c3ccco3)oc2C)c(OC)c1 [Example 259, ethyl (2E)-3-{1-benzyl-3-[(4-{[2-(2-furyl)-5-methyl-1,3-oxazol-4-yl]methoxy}-3-methoxybenzyl)oxy]-1H-pyrazol-4-yl}-2-propenoate]
13 | 175 to 176 | COc1cc(COc2nn(Cc3ccccc3)cc2/C=C/C(=O)O)ccc1OCc1nc(-c2ccco2)oc1C [Example 260, (2E)-3-{1-benzyl-3-[(4-{[2-(2-furyl)-5-methyl-1,3-oxazol-4-yl]methoxy}-3-methoxybenzyl)oxy]-1H-pyrazol-4-yl}-2-propenoic acid]
14 | 209 to 210 | Cc1oc(-c2ccccc2)nc1COc1ccc(OCc2oc(-c3ccccc3)nc2/C=C/C(=O)O)cc1 [Example 261, (2E)-3-[5-({4-[(5-methyl-2-phenyl-1,3-oxazol-4-yl)methoxy]phenoxy}methyl)-2-phenyl-1,3-oxazol-4-yl]-2-propenoic acid]
15 | 252 to 253 | COc1cc(COc2nn(-c3ccccc3)cc2/C=C2\SC(=O)NC2=O)ccc1OCc1nc(-c2ccco2)oc1C [Example 262, (5Z)-5-({3-[(4-{[2-(2-furyl)-5-methyl-1,3-oxazol-4-yl]methoxy}-3-methoxybenzyl)oxy]-1-phenyl-1H-pyrazol-4-yl}methylene)-1,3-thiazolidine-2,4-dione]
16 | 142 to 143 | CCOC(=O)c1cnc(-c2ccccc2)nc1OCc1ccc(OCc2nc(-c3ccco3)oc2C)c(OC)c1 [Example 263, ethyl 4-[(4-{[2-(2-furyl)-5-methyl-1,3-oxazol-4-yl]methoxy}-3-methoxybenzyl)oxy]-2-phenylpyrimidine-5-carboxylate]
17 | 134 to 135 | CCOC(=O)c1cn(C)nc1OCc1ccc(OCc2nc(-c3ccccc3)oc2C)c(OC)c1 [Example 264, ethyl 3-{[3-methoxy-4-(5-methyl-2-phenyl-1,3-oxazol-4-ylmethoxy)benzyl]oxy}-1-methyl-1H-pyrazole-4-carboxylate]
18 | 169 to 170 | COc1cc(COc2nn(C)cc2C(=O)O)ccc1OCc1nc(-c2ccccc2)oc1C [Example 265, 3-{[3-methoxy-4-(5-methyl-2-phenyl-1,3-oxazol-4-ylmethoxy)benzyl]oxy}-1-methyl-1H-pyrazole-4-carboxylic acid]
19 | 108 to 109 | COc1cc(COc2nn(C)cc2CO)ccc1OCc1nc(-c2ccccc2)oc1C [Example 266, (3-{[3-methoxy-4-(5-methyl-2-phenyl-1,3-oxazol-4-ylmethoxy)benzyl]oxy}-1-methyl-1H-pyrazol-4-yl)methanol]
20 | 123 to 124 | COc1cc(COc2nn(C)cc2C=O)ccc1OCc1nc(-c2ccccc2)oc1C [Example 267, 3-{[3-methoxy-4-(5-methyl-2-phenyl-1,3-oxazol-4-ylmethoxy)benzyl]oxy}-1-methyl-1H-pyrazole-4-carbaldehyde]
21 | 168 to 169 | COc1cc(COc2nn(C)cc2C(N)=O)ccc1OCc1nc(-c2ccccc2)oc1C [Example 268, 3-{[3-methoxy-4-(5-methyl-2-phenyl-1,3-oxazol-4-ylmethoxy)benzyl]oxy}-1-methyl-1H-pyrazole-4-carboxamide]
